Patent publication US20240025906A1 (NEURON23, INC., priority 2022, published 2024)

How the values were obtained:
[1] = biological target: T1, TYK2 JH2 (Homo sapiens, UniProt P29597); experiment: TYK2 JH2 binding assay (KINOMEscan KdELECT competitive binding); conditions: TYK2 JH2 domain, KINOMEscan KdELECT (Assay A); read-out: Biochemical TYK2_JH2_Kd
T1 construct: purchased DiscoverX (KINOMEscan KdELECT service); host or cells: E. coli BL21-derived (T7 phage display) or HEK-293
How it was run: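 JH2-domain fragment, expressed as T7 phage tag in BL21-derived E. coli or DNA-tagged from HEK-293, competed with test compound against bead-immobilized biotinylated ligand in binding buffer (0.9% DMSO). 1 h shaking at room temperature; bound kinase eluted with 0.5 μM free ligand and quantified by qPCR. Kd from 11-point 3-fold dilutions.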

[2] = tested on: JAK1/TYK2 pSTAT5 (Tyr694/699) in THP-1 cell line; experiment: IFNa-stimulated JAK1/TYK2 pSTAT5 (Tyr694/699) inhibition cellular assay, AlphaLISA; type: cell-based; conditions: Homo sapiens; THP-1 cells, IFNa-stimulated, AlphaLISA (Assay B); read-out: Cellular THP1_IFNa-pSTATS_IC50
How it was run: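 pSTAT5 (Tyr694/699) in lysates quantified by AlphaLISA (615 nm) after 30 min IFNa stimulation (100 ng/mL stock) of THP-1 cells. The cells, 2e4 per well in HBSS, had first been exposed 1 h at 37° C. to eight 6-fold compound dilutions, 10000 down to 0.04 nM final. IC50 fitted by 4PL regression, bottom 0, Hill slope −1.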

T1 sequence (P29597 589-875 limits assumed): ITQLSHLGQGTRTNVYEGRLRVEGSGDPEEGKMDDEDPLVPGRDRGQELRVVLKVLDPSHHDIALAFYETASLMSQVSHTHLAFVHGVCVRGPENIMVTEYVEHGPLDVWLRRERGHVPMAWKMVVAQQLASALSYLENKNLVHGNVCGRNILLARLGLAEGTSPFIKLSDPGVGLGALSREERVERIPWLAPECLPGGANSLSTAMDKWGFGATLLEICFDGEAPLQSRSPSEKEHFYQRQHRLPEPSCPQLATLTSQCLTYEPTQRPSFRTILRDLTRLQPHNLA

Compound	Kd [1] [nM]	IC50 [2] [nM]
CNc1ncc(-c2ccc(C(=O)C3CC3)cc2)c2cc(NC(=O)C3CC3)ncc12 [Example 144, N-(5-(4-(cyclopropanecarbonyl)phenyl)-8-(methylamino)-2,7-naphthyridin-3-yl)cyclopropanecarboxamide]	≤ 100	> 500
CNc1ncc(-c2nc3ccccc3s2)c2cc(NC(=O)C3CC3)ncc12 [Example 145, N-(5-(benzo[d]thiazol-2-yl)-8-(methylamino)-2,7-naphthyridin-3-yl)cyclopropanecarboxamide]	≤ 100	≤ 500
CCn1ccc(-c2cnc(NC)c3cnc(NC(=O)C4CC4)cc23)n1 [Example 147, N-(5-(1-ethyl-1H-pyrazol-3-yl)-8-(methylamino)-2,7-naphthyridin-3-yl)cyclopropanecarboxamide]	≤ 100	≤ 500
CNc1ncc(-c2ccn(C(C)C)n2)c2cc(NC(=O)C3CC3)ncc12 [Example 148, N-(5-(1-isopropyl-1H-pyrazol-3-yl)-8-(methylamino)-2,7-naphthyridin-3-yl)cyclopropanecarboxamide]	≤ 100	≤ 500
CNc1ncc(-c2ccn(CC(C)C)n2)c2cc(NC(=O)C3CC3)ncc12 [Example 149, N-(5-(1-isobutyl-1H-pyrazol-3-yl)-8-(methylamino)-2,7-naphthyridin-3-yl)cyclopropanecarboxamide]	≤ 100	> 500
CNc1ncc(-c2ccn(Cc3ncn(C)n3)n2)c2cc(NC(=O)C3CC3)ncc12 [Example 150, N-(5-(1-((1-methyl-1H-1,2,4-triazol-3-yl)methyl)-1H-pyrazol-3-yl)-8-(methylamino)-2,7-naphthyridin-3-yl)cyclopropanecarboxamide]	≤ 100	> 500
CNc1ncc(-c2ccn(Cc3nccs3)n2)c2cc(NC(=O)C3CC3)ncc12 [Example 151, N-(8-(methylamino)-5-(1-(thiazol-2-ylmethyl)-1H-pyrazol-3-yl)-2,7-naphthyridin-3-yl)cyclopropanecarboxamide]	≤ 100	> 500
CNc1ncc(-c2ccn(Cc3noc(C)n3)n2)c2cc(NC(=O)C3CC3)ncc12 [Example 152, N-(5-(1-((5-methyl-1,2,4-oxadiazol-3-yl)methyl)-1H-pyrazol-3-yl)-8-(methylamino)-2,7-naphthyridin-3-yl)cyclopropanecarboxamide]	≤ 100	> 500
CNc1ncc(-c2ccn(CC3CCSCC3)n2)c2cc(NC(=O)C3CC3)ncc12 [Example 153A, N-(8-(methylamino)-5-(1-((tetrahydro-2H-thiopyran-4-yl)methyl)-1H-pyrazol-3-yl)-2,7-naphthyridin-3-yl)cyclopropanecarboxamide]	≤ 100	> 500
CNc1ncc(-c2ccn(CC3CCS(=O)(=O)CC3)n2)c2cc(NC(=O)C3CC3)ncc12 [Example 153B, N-(5-(1-((1,1-dioxidotetrahydro-2H-thiopyran-4-yl)methyl)-1H-pyrazol-3-yl)-8-(methylamino)-2,7-naphthyridin-3-yl)cyclopropanecarboxamide]	≤ 100	> 500
CNc1ncc(-c2ccn(Cc3ccccn3)n2)c2cc(NC(=O)C3CC3)ncc12 [Example 154, N-(8-(methylamino)-5-(1-(pyridin-2-ylmethyl)-1H-pyrazol-3-yl)-2,7-naphthyridin-3-yl)cyclopropanecarboxamide]	≤ 100	> 500
CNc1ncc(-c2nc3ccccn3n2)c2cc(NC(=O)C3CC3)ncc12 [Example 155, N-(5-([1,2,4]triazolo[1,5-a]pyridin-2-yl)-8-(methylamino)-2,7-naphthyridin-3-yl)cyclopropanecarboxamide]	≤ 100	≤ 500
CNc1ncc(-c2ccn3nc(N4CCC4)nc3c2)c2cc(NC(=O)C3CC3)ncc12 [Example 156, N-(5-(2-(azetidin-1-yl)-[1,2,4]triazolo[1,5-a]pyridin-7-yl)-8-(methylamino)-2,7-naphthyridin-3-yl)cyclopropanecarboxamide]	≤ 100	> 500
